Results published in patent US20120010285A1, “AGENT FOR PROMOTING ENERGY CONSUMPTION” (KAO CORPORATION, priority 2009, published 2012).

Assays:
ACC2 mRNA = assay: Expression of ACC2 mRNA in cultured mouse liver cell line Hepa1-6 (quantitative PCR); assay type: cell-based; details: Hepa1-6 cells, each of the chlorogenic acids (Production Example 4) 5 mM, 24 hours, control at 100
Description: (§1) A cultured mouse liver cell line (Hepa1-6 cell) was cultured in 10% bovine serum-containing Dulbeco's Modified Eagle's Medium (DMEM) at 37° C., 5% CO2. The cells were seeded in a 6-well plate, and when they reached subconfluency, the medium was replaced by a serum free medium (DMEM, -FBS), followed by culturing for further 12 hours. Subsequently, various samples were added (final concentration: chlorogenic acids (Production Example 1) 2.5×10^−4% (w/v) and each of the chlorogenic acids (Production Example 4) 5 mM), and after 24 hours of culturing, total RNA was prepared according to a standard method. After preparing cDNA by reverse transcription reaction, quantitative PCR was performed by ABI PRISM 7000 Sequence Detection System (Applied Biosystems) using Power SYBR Green Master Mix (Applied Biosystems). Also, the expression level of each gene was corrected using the expression level of 36B4 as an internal standard, and represented as a relative expression level by setting the expression level of control at 100.

PDK4 mRNA = assay: Expression of PDK4 mRNA in cultured mouse liver cell line Hepa1-6 (quantitative PCR); assay type: cell-based; details: Hepa1-6 cells, each of the chlorogenic acids (Production Example 4) 5 mM, 24 hours, control at 100
Description: as §1

O=C(/C=C/c1ccc(O)c(O)c1)O[C@@H]1[C@H](O)C[C@@](O)(C(=O)O)C[C@H]1OC(=O)/C=C/c1ccc(O)c(O)c1 [3,4-dicaffeoylquinic acid]
expression of ACC2 mRNA (ACC2 mRNA): significantly reduced | expression of PDK4 mRNA (PDK4 mRNA): significantly inhibited

O=C(/C=C/c1ccc(O)c(O)c1)O[C@@H]1CC(O)(C(=O)O)C[C@@H](OC(=O)/C=C/c2ccc(O)c(O)c2)C1O (some centres unmarked) [3,5-dicaffeoylquinic acid]
expression of ACC2 mRNA (ACC2 mRNA): significantly reduced

O=C(/C=C/c1ccc(O)c(O)c1)O[C@@H]1C[C@](O)(C(=O)O)C[C@@H](O)[C@H]1O [3-caffeoylquinic acid]
expression of ACC2 mRNA (ACC2 mRNA): significantly reduced | expression of PDK4 mRNA (PDK4 mRNA): significantly inhibited

O=C(/C=C/c1ccc(O)c(O)c1)O[C@H]1[C@H](O)C[C@](O)(C(=O)O)C[C@H]1OC(=O)/C=C/c1ccc(O)c(O)c1 [4,5-dicaffeoylquinic acid]
expression of ACC2 mRNA (ACC2 mRNA): significantly reduced

O=C(/C=C/c1ccc(O)c(O)c1)O[C@H]1[C@H](O)C[C@](O)(C(=O)O)C[C@H]1O [4-caffeoylquinic acid]
expression of ACC2 mRNA (ACC2 mRNA): significantly reduced | expression of PDK4 mRNA (PDK4 mRNA): significantly inhibited
